Experimental data reported in patent US20040082503A1, “Methods for treatment of diabetes using peptide analogues of insulin” (Neurocrine Biosciences, Inc., priority 1998, published 2004).

Columns and labels:
[1] = tested on: Insulin specific NOD T cell clone PD12-4.29; experiment: Proliferation of insulin-specific NOD T cell clone PD12-4.29; assay type: cell-based, mouse (NOD); settings: 50 μg/ml peptide, 72 h, 3H-thymidine; no antigen 789 cpm
Experimental: (§1) Insulin specific NOD T cell lines were established by culturing lymphocytes isolated from islet-infiltrating populations by in vitro stimulation with either porcine insulin at 25 μg/ml and irradiated NOD islet cell in the presence of irradiated NOD spleen cells as antigen presenting cells and cytokines. To obtain the infiltrating lymphocytes the following procedures were performed (see Wegmann et al., Eur. J. Immunol. 24:1853, 1994): the pancreas from the NOD mouse was digested with collagenase and individual islets were isolated manually. The infiltrating lymphocytes were then obtained by mild trypsin digestion of the islets. The insulin specific T cell lines or clones were propagated by serial stimulation in the presence of NOD spleen cells, porcine insulin and lymphokines. Clones were obtained by limiting dilution of the B chain (9-23) specific T cell lines in the presence of the antigen presenting cells and porcine insulin at 25 μg/ml. Wells with a growing population of cells following limiting dilution were expanded in appropriate medium, and after one cycle of growth were tested for reactivity to the B chain (9-23) peptide of insulin by evaluating the proliferative response.
(§2) Insulin B chain (9-23) (SEQ ID NO:2) specific mouse (NOD) T cell clones were isolated from infiltrated islets as described in Example 2. Peptide analogues with single alanine substitutions were prepared as described in Example 1. The effect of each analogue on T cell proliferation was then evaluated using an assay performed in 96-well flat bottom microtiter plates (see Daniel et al., Eur. J. Immunol. 25:1056, 1995). Briefly 25,000 T cell clones along with 1 million irradiated NOD spleen cells were cultured in the presence of 50 μg/ml of insulin B chain 9-23 peptide or any of the alanine substituted peptides listed below in triplicate sets. The plates were incubated for a total of 72 hours in 7% carbon dioxide atmosphere with a pulse of 1 μCi/well of tritiated thymidine for the last 6-8 hours of culture. Cells were harvested on a glass fiber filter and the associated radioactivity was counted in a liquid scintillation counter. Results are expressed as mean counts per minute of triplicate wells.

[2] = tested on: Insulin specific NOD T cell clone PD12-2.40; experiment: Proliferation of insulin-specific NOD T cell clone PD12-2.40; assay type: cell-based, mouse (NOD); settings: 50 μg/ml peptide, 72 h, 3H-thymidine; no antigen 682 cpm
Experimental: as §1, §2
(§3) NOD T cell clones were incubated in the presence of 50 μM of either the native B chain (9-23) peptide or NBI-6024. The data in Table 3 represent the mean of triplicate sample±standard error of the mean. Within Table 3, S.I. (Stimulation Index)=proliferation (cpm) in the presence of the peptide/proliferation (cpm) in medium alone.

[3] = tested on: Insulin specific NOD T cell clone PD12-4.34; experiment: Proliferation of insulin-specific NOD T cell clone PD12-4.34; assay type: cell-based, mouse (NOD); settings: 50 μg/ml peptide, 72 h, 3H-thymidine; no antigen 231 cpm
Experimental: as §1, §2

[4] = tested on: Insulin specific NOD T cell clone PD6-4.3; experiment: Proliferation of insulin-specific NOD T cell clone PD6-4.3; assay type: cell-based, mouse (NOD); settings: 50 μg/ml peptide, 72 h, 3H-thymidine; no antigen 163 cpm
Experimental: as §1, §2

[5] = tested on: Insulin specific NOD T cell clone PD12-4.4; experiment: Proliferation of insulin-specific NOD T cell clone PD12-4.4; assay type: cell-based, mouse (NOD); settings: 50 μg/ml peptide, 72 h, 3H-thymidine; no antigen 350 cpm
Experimental: as §1, §2

[6] = tested on: Insulin B chain (9-23) specific mouse (NOD) T cell clones; experiment: Proliferation of insulin-specific NOD T cell clones (summary over clones); assay type: cell-based; settings: five separate T cell clones; 50 μg/ml peptide
Experimental: as §1, §2, §3

[7] = tested on: B chain (9-23) specific mouse T cell clones; experiment: Antagonism of T cell proliferation assay (FIG. 2); assay type: cell-based, mouse (NOD); settings: varying amounts of analogue
Experimental: FIG. 2 is a graph showing the proliferative response (measured in cpm) of a NOD mouse T cell clone to a native insulin B chain (9-23) peptide in the presence of varying amounts of representative peptide analogues, in which different residues are substituted with alanine, as indicated.
Peptide analogues of B chain (9-23) containing alanine substitutions at residue 12, 13, 15 or 16 or the doubly substituted peptide at positions 16 and 19 (A^16,19; NBI-6024) were prepared as described in Example 1. T cell antagonism was detected by evaluating the ability of the peptide analogues to inhibit T cell proliferation induced by native B chain (9-23) (SEQ ID NO:2). In this assay, antigen presenting cells were first irradiated and then incubated with the competing peptide analogue and the native B chain (9-23) peptide. T cells were then added to the culture. Various concentrations of candidate peptide analogues were included in cultures which were incubated for a total of 4 days. Following this incubation period, each culture was pulsed with 1 μCi of [^3H]-thymidine for an additional 12-18 hours. Cultures were then harvested on fiberglass filters and counted as above. Mean CPM and standard error of the mean were calculated from data determined in triplicate cultures.

[8] = tested on: NOD mice (spontaneous diabetes); experiment: Reduction of incidence of diabetes in NOD mice; assay type: in vivo, NOD mouse; settings: NOD mice, 400 μg s.c. weekly, 13 treatments; neurotensin as control; FIG. 10

Substance	Response (cpm) of T cell clone PD12-4.29 [1] [cpm]	Response (cpm) of T cell clone PD12-2.40 [2] [cpm]	Response (cpm) of T cell clone PD12-4.34 [3] [cpm]	Response (cpm) of T cell clone PD6-4.3 [4] [cpm]	Response (cpm) of T cell clone PD12-4.4 [5] [cpm]	Proliferation relative to the 9-23 native peptide of insulin B chain [6]	Inhibition of T cell proliferation induced by native B chain (9-23) [7]	Incidence of diabetes (percent of mice diabetic) [8]
Position 10: insulin B chain (9-23) analogue, native H at position 10 substituted with A	15484	1409	356	12507	823	–	–	–
Position 12: insulin B chain (9-23) analogue, native V at position 12 substituted with A (SHLAEALYLVCGERG)	15041	671	194	8292	1129	either a lack of proliferation or significantly reduced proliferation	capable of attenuating the response	–
Position 19: insulin B chain (9-23) analogue, native C at position 19 substituted with A	6054	34212	689	7678	4295	–	–	–
Position 20: insulin B chain (9-23) analogue, native G at position 20 substituted with A	13736	38685	466	2440	1323	–	–	–
Position 15: insulin B chain (9-23) analogue, native L at position 15 substituted with A (SHLVEAAYLVCGERG)	809	1422	191	161	675	either a lack of proliferation or significantly reduced proliferation	–	–
Position 16: insulin B chain (9-23) analogue, native Y at position 16 substituted with A (SHLVEALALVCGERG)	636	539	202	98	779	either a lack of proliferation or significantly reduced proliferation	capable of attenuating the response	–
Position 13: insulin B chain (9-23) analogue, native E at position 13 substituted with A (SHLVAALYLVCGERG)	891	519	179	142	373	either a lack of proliferation or significantly reduced proliferation	capable of attenuating the response	more pronounced
Position 22: insulin B chain (9-23) analogue, native R at position 22 substituted with A	12635	51721	1555	6555	1313	–	–	–
Position 17: insulin B chain (9-23) analogue, native L at position 17 substituted with A	1460	19321	4360	553	332	either a lack of proliferation or significantly reduced proliferation	–	–
Position 23: insulin B chain (9-23) analogue, native G at position 23 substituted with A	18422	75441	791	14304	3228	–	–	–
Position 11: insulin B chain (9-23) analogue, native L at position 11 substituted with A	18416	2594	190	14148	474	–	–	–
Position 18: insulin B chain (9-23) analogue, native V at position 18 substituted with A	1193	44785	721	234	225	either a lack of proliferation or significantly reduced proliferation	–	–
Position 21: insulin B chain (9-23) analogue, native E at position 21 substituted with A	4904	39087	773	91	7900	–	–	–
